In the supplement of paper PMC4862054:

How the values were obtained:
Conditions in all cases: incubation time: 72 h
MDA-MB-231 [1] = assay: normalised viability (% of control), CellTiter-Blue; higher = more viable cells (100 = DMSO, 0 = benzethonium chloride kill control)
Experimental: (§1)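 DSRT, CellTiter-Blue viability, 72 h incubation. Signal is normalised to DMSO and benzethonium chloride controls. Value is the normalised response at dose 1.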

BT-474 [2] = assay: as above
Experimental: as §1

Hs578T [3] = assay: as above
Experimental: as §1

MDA-MB-453 [4] = assay: as above
Experimental: as §1

HCC1143 [5] = assay: as above
Experimental: as §1

CAL-85-1 [6] = assay: as above
Experimental: as §1

MDA-MB-436 [7] = assay: as above
Experimental: as §1

CAL-148 [8] = assay: as above
Experimental: as §1

MFM-223 [9] = assay: as above
Experimental: as §1

CAL-51 [10] = assay: as above
Experimental: as §1

BT-549 [11] = assay: as above
Experimental: as §1

SK-BR-3 [12] = assay: as above
Experimental: as §1

MDA-MB-468 [13] = assay: as above
Experimental: as §1

DU-4475 [14] = assay: as above
Experimental: as §1

HCC1599 [15] = assay: as above
Experimental: as §1

CAL-120 [16] = assay: as above
Experimental: as §1

HDQ-P1 [17] = assay: as above
Experimental: as §1

HCC1937 [18] = assay: as above
Experimental: as §1

MDA-MB-231 [19] = assay: normalised response (% of control), CellTiter-Glo; higher = more viable cells (100 = DMSO, 0 = benzethonium chloride kill control)
Method in brief: (§2)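 Breast cancer cell lines in 20 µl suspension were added to 384-well plates containing compound at 5 concentrations, spaced in 10-fold steps across a 10,000-fold range chosen for each compound, and incubated for 72 h. CellTox Green fluorescence was read at 485/520 nm, followed by CellTiter-Glo luminescence after 10 min at room temperature. Signals on each plate were normalised so that 0.1 % DMSO equals 100 and a positive kill control equals 0. Every value in the table is the normalised signal at one concentration of the series.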

BT-474 [20] = assay: as above
Method in brief: as §2

Hs578T [21] = assay: as above
Method in brief: as §2

MDA-MB-453 [22] = assay: as above
Method in brief: as §2

HCC1143 [23] = assay: as above
Method in brief: as §2

MCF-10A = assay: as above
Method in brief: as §2

CAL-85-1 [24] = assay: as above
Method in brief: as §2

MDA-MB-436 [25] = assay: as above
Method in brief: as §2

CAL-148 [26] = assay: as above
Method in brief: as §2

MFM-223 [27] = assay: as above
Method in brief: as §2

CAL-51 [28] = assay: as above
Method in brief: as §2

BT-549 [29] = assay: as above
Method in brief: as §2

SK-BR-3 [30] = assay: as above
Method in brief: as §2

MDA-MB-468 [31] = assay: as above
Method in brief: as §2

DU-4475 [32] = assay: as above
Method in brief: as §2

HCC1599 [33] = assay: as above
Method in brief: as §2

CAL-120 [34] = assay: as above
Method in brief: as §2

HDQ-P1 [35] = assay: as above
Method in brief: as §2

HCC1937 [36] = assay: as above
Method in brief: as §2

SMILES | normalised viability (MDA-MB-231 [1]) | normalised viability (BT-474 [2]) | normalised viability (Hs578T [3]) | normalised viability (MDA-MB-453 [4]) | normalised viability (HCC1143 [5]) | normalised viability (CAL-85-1 [6]) | normalised viability (MDA-MB-436 [7]) | normalised viability (CAL-148 [8]) | normalised viability (MFM-223 [9]) | normalised viability (CAL-51 [10]) | normalised viability (BT-549 [11]) | normalised viability (SK-BR-3 [12]) | normalised viability (MDA-MB-468 [13]) | normalised viability (DU-4475 [14]) | normalised viability (HCC1599 [15]) | normalised viability (CAL-120 [16]) | normalised viability (HDQ-P1 [17]) | normalised viability (HCC1937 [18]) | normalised response (MDA-MB-231 [19]) | normalised response (BT-474 [20]) | normalised response (Hs578T [21]) | normalised response (MDA-MB-453 [22]) | normalised response (HCC1143 [23]) | normalised response (MCF-10A) | normalised response (CAL-85-1 [24]) | normalised response (MDA-MB-436 [25]) | normalised response (CAL-148 [26]) | normalised response (MFM-223 [27]) | normalised response (CAL-51 [28]) | normalised response (BT-549 [29]) | normalised response (SK-BR-3 [30]) | normalised response (MDA-MB-468 [31]) | normalised response (DU-4475 [32]) | normalised response (HCC1599 [33]) | normalised response (CAL-120 [34]) | normalised response (HDQ-P1 [35]) | normalised response (HCC1937 [36])
Cc1cc(Nc2cc(CN3CCOCC3)c3nc(C)c(Cc4ccc(Cl)cc4F)n3n2)n[nH]1 (1 nM) | 89.5% | 92.4% | 107% | 85.3% | 88.6% | 82.1% | 87.7% | 95.6% | 93.8% | 98% | 97.8% | 104% | 103% | 119% | 110% | 86.9% | 65.2% | 85.9% | – | – | – | – | – | – | – | – | – | – | – | – | – | – | – | – | – | – | –
N#Cc1ccc(COC[C@H]2O[C@@H](n3c(NCc4ccc(Cl)c(Cl)c4)nc4c(N)ncnc43)[C@H](O)[C@@H]2O)cc1 (1 nM) | 102% | 116% | 92.8% | 110% | 99.9% | 98.4% | 110% | 111% | 92.5% | 111% | 105% | 91.4% | 95.5% | 111% | 109% | 101% | 118% | 84.1% | 107% | 109% | 101% | 112% | 108% | 112% | 104% | 104% | 110% | 107% | 78.2% | 99.8% | 109% | 107% | 99.1% | 110% | 108% | 108% | 103%
COc1cc(OC2CCN(C)CC2)ccc1Nc1ncc2c(n1)n(C1CCCC1)c(=O)n2C [AZ 3146] (1 nM) | 92.2% | 98.9% | 89.2% | 94.3% | 128% | 114% | 103% | 109% | 109% | 92.4% | 84.3% | 107% | 105% | 98.8% | 126% | 116% | 88.3% | 95.2% | 102% | 95.5% | 93.7% | 112% | 98.9% | 94.2% | 99.7% | 85.8% | 101% | 98.2% | 101% | 107% | 98.3% | 101% | 90.9% | 125% | 105% | 98.4% | 95.9%
CN(C)c1nc(N(C)C)nc(N(C)C)n1 [Altretamine] (1 nM) | 96% | 112% | 97.3% | 99.1% | 102% | 94.8% | 110% | 111% | 95.1% | 105% | 93.1% | 87.6% | 93.1% | 111% | 86.3% | 88.2% | 116% | 105% | 104% | 106% | 102% | 124% | 99.6% | 102% | 96.4% | 97.9% | 96.5% | 103% | 103% | 95% | 108% | 101% | 104% | 90.2% | 97% | 101% | 93.1%
COC(=O)c1ccc2c(c1)NC(=O)/C2=C(\Nc1ccc(N(C)C(=O)CN2CCN(C)CC2)cc1)c1ccccc1 [BIBF 1120] (1 nM) | 129% | 124% | 109% | 101% | 95.7% | 94.3% | 114% | 105% | 91.8% | 99.7% | 119% | 93.3% | 108% | 112% | 87.2% | 83.6% | 114% | 117% | – | – | – | – | – | – | – | – | – | – | – | – | – | – | – | – | – | – | –
